{
  "source": "patent EP2292587A1",
  "about": "“PHARMACEUTICAL COMPOSITION FOR INHIBITING THE TRANSCRIPTION FACTOR INDUCIBLE BY HYPOXIA, MODULATORS OF PATHOLOGICAL PROCESSES OF ANGIOGENESIS, ONCOGENESIS, INFLAMMATION, APOPTOSIS, AND CELLULAR THERAPY” (Fundacion De La Comunidad Valenciana Centro De …, priority 2008, dated 2009)",
  "key": {"[1]": {"tested_on": "mouse neurospheres (neural stem cells)", "assay": "microsatellite genomic instability in neurospheres", "format": "cell-based", "method": "By using specific fluorescence-labeled primers for microsatellite sequence markers, the genomic stability of neurospheres in normoxia (Nx), hypoxia (Hx) or hypoxia+FM19G11 (Hx+19G11) was analyzed. […] The treatment with FM19G11 enabled the recovery of the normoxia profiles (used as a reference or control), thus preventing the genomic instability caused by hypoxia."}, "[2]": {"tested_on": "HT29", "assay": "Western blot of DNA damage response proteins in HT29", "format": "cell-based, human", "settings": "0.25 or 0.5 µM, 24 hours", "text": "According to the results obtained by the Western blotting technique, FM19G11 triggers a DNA damage response (DDR) in human colon cancer cells (HT29)."}, "[3]": {"tested_on": "PHD3 and VEGF", "assay": "qPCR of PHD3 and VEGF in primary culture of epNSCs", "format": "cell-based, rat", "settings": "500 nM, hypoxia (1% O2), 6 to 24 hours", "text": "Adult Wistar rats of between 2 to 3 months of age were used (the animals were handled following the mode of action which complies with section 2.1 (acceptable methods of euthanasia) of the document prepared for the DGXI of the European Commission regarding the protection of animals used for experimentation and other scientific purposes (No. L358, ISSN 0378-6978) and after the approval of the protocols by the Committee for Animal Care and Wellbeing of the Centro de Investigación Principe Felipe, Valencia, SPAIN). Once the animals were sacrificed, the dorsal part of the spinal cord was dissected and the tissue was maintained, at 4°C, in washing medium (DPBS-glucose) for its processing. To reduce the percentage of connective tissue cells the meninges as well as the most superficial blood vessels were removed. […]\nTotal RNA was isolated using the commercial kit RNAeasy (Qiagen) and following the manufacturer's instructions. […] The quantitative polymerase chain reaction (qPCR) was carried out using Taqman probes and primers designed by Applied Biosystem for rVEGF (Ref Rn00582935_m1), rPHD3 (Ref Rn00571341_m1) and rGAPDH (Ref Rn01775763_g1). […] The expression levels of VEGF and PHD3 were expressed as the increase of Ct with respect to the expression levels of GAPDH (constitutive expression gene): Ct (ΔCt)=Ct (VEGF or PHD3)-Ct (GAPDH). […]"}, "[4]": {"tested_on": "human dental pulp stem cells", "assay": "Annexin V/PI apoptosis and death in dental pulp stem cells", "format": "cell-based", "method": "The apoptosis studies were conducted from cell cultures subjected to normoxic and hypoxic conditions in the presence and absence of the compound at 0.5 µM. The presence of phosphatidylserine in the outer part of the plasma membrane, characteristic of apoptotic processes, was detected using Annexin V (fluorescent dye Annexin V-FITC Apoptosis Detection Kit (BD Pharmingen, BD Biosciences) according to the manufacturer's instructions. The cells subjected to the different conditions were incubated with Annexin V for 30 minutes at 4°C. The cells were then incubated with propidium iodide (PI) and analyzed in a FACScalibur flow cytometer ([…]). PI-/AnnexinV+ cells were defined as early apoptotic cells, PI+/AnnexinV+ cells as late apoptotic cells and PI+/AnnexinV- cells as dead cells. Therefore, the number of total apoptotic cells will be the sum of early and late apoptotic cells."}, "[5]": {"tested_on": "histone deacetylase (HDAC)", "assay": "HDAC Fluorimetric Cellular Activity Assay, HeLa cell extracts", "format": "cell-based", "settings": "different concentrations", "method": "Since FM19G11 was capable of affecting the degree of acetylation of histone H3 and therefore the conformation of chromatin, it was evaluated if FM19G11 favored the transfer of acetyl groups to histone H3 or, on the contrary, prevented histone H3 from being deacetylated. Both effects would cause an increase of the degree of acetylation of histone H3. Immunoprecipitation assays were performed with an antibody recognizing acetyltransferase p300 and then assays for measuring the acetyltransferase activity by means of using the kit \"HAT Colorimetric Assay\" (BioVision) were carried out. This method consists of detecting NADH since peptide acetylation causes the release of the free form of Coenzyme A, which serves as an essential coenzyme for producing NADH.\nThe protein extracts were previously immunoprecipitated with an anti-p300 antibody and the acetyltransferase activity measured by the detection of NADH. The evaluation of the histone deacetylase (HDAC) activity (Figure 34 B) was carried out with protein extracts of HeLa cells treated with different concentrations of FM19G11. As a positive control, a fixed concentration of TSA (1 µM) was included and extracts of untreated cells were used as a control. The experiments were carried out following the instructions of the Biomol kit for detecting histone deacetylase activity (HDAC Fluorimetric Cellular Activity Assay, Biomol, Cat. No. AK-503). […]"}},
  "data": [
    {"compound": "Cc1ccc(C(=O)COC(=O)c2cccc(NC(=O)c3ccc([N+](=O)[O-])cc3[N+](=O)[O-])c2)cc1", "note": "[FM19G11, 2-oxo-2-(p-tolyl)ethyl 3-((2,4-dinitro)benzamido)benzoate]", "values": [
      {"measurement": "genomic instability caused by hypoxia (microsatellite markers mBAT59, mBAT67)", "setting": "[1]", "value": "prevented"},
      {"measurement": "phosphorylation of DDR proteins (H2AX, MLH1, MSH6, BRCA1, ATM, ATR, CHK1, CHK2, p53)", "setting": "[2]", "value": "efficiently increased the phosphorylation"},
      {"measurement": "increase of both PHD3 and VEGF (mRNA)", "setting": "[3]", "value": "significantly inhibited"},
      {"measurement": "death (decreased in hypoxia)", "setting": "[4]; 0.5 µM", "value": "reverts the decrease in death"},
      {"measurement": "number of total apoptotic cells (reduced by hypoxia)", "setting": "[4]; 0.5 µM, 72 hours", "value": "capable of reverting said effect"},
      {"measurement": "expression of the tumor suppressor p53", "setting": "[4]; hypoxia", "value": "recovery of p53"},
      {"measurement": "activity as a histone deacetylase inhibitor", "setting": "[5]", "value": "did not show activity"}
    ]}
  ]
}
